The target of the test is T1, BRM (Homo sapiens, UniProt P51531).
T1 construct: In-Cell Western Screen of BRM Degradation in SW1573 Cells; endogenous in cells; host or cells: SW1573
Nature of the test: In-cell Western screen of BRM degradation in SW1573 cells (Dmax and DC50). Type of test: cell-based. Put shortly:
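SW1573 cells were treated with compound overnight (18-20 h; final DMSO 0.1%), then fixed in 4% PFA, permeabilized with Triton X-100 and blocked. BRM was detected by in-cell Western using 800 nm anti-rabbit and 680 nm anti-mouse secondaries, and Dmax and DC50 were derived from the LI-COR Odyssey signal.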

Where [1] appears, read: BRM degradation, SW1573 cells, read-out: DC50.
Setting [2] is: SW1573, % degraded, when tested at the top concentration of between 0.3 and 10 μM, read-out: BRM Dmax (%).
The mark [3] stands for this setting: target protein degradation, read-out: BRM DC50.
[4] abbreviates: BRM degradation, SW1573 cells, tested at the top concentration of between 0.3 and 10 μM, read-out: Dmax (%) (% degraded).
The mark [5] stands for this setting: BRM degradation, read-out: BRM DC50.
Setting [6] is: BRM degradation, SW1573 cells, Table 2D, read-out: **Dmax (%) (% degraded).
[7] abbreviates: BRM degradation, SW1573 cells, Table 2D, read-out: *DC50.

Read-outs that look alike come from different tables or passages of the source. Bounds are passed on as bounds.

This note sets out measurements from patent US12539292B2, “BRM targeting compounds and associated methods of use” (Arvinas Operations, Inc., priority 2018, dated 2026).

T1 sequence (P51531 whole entry): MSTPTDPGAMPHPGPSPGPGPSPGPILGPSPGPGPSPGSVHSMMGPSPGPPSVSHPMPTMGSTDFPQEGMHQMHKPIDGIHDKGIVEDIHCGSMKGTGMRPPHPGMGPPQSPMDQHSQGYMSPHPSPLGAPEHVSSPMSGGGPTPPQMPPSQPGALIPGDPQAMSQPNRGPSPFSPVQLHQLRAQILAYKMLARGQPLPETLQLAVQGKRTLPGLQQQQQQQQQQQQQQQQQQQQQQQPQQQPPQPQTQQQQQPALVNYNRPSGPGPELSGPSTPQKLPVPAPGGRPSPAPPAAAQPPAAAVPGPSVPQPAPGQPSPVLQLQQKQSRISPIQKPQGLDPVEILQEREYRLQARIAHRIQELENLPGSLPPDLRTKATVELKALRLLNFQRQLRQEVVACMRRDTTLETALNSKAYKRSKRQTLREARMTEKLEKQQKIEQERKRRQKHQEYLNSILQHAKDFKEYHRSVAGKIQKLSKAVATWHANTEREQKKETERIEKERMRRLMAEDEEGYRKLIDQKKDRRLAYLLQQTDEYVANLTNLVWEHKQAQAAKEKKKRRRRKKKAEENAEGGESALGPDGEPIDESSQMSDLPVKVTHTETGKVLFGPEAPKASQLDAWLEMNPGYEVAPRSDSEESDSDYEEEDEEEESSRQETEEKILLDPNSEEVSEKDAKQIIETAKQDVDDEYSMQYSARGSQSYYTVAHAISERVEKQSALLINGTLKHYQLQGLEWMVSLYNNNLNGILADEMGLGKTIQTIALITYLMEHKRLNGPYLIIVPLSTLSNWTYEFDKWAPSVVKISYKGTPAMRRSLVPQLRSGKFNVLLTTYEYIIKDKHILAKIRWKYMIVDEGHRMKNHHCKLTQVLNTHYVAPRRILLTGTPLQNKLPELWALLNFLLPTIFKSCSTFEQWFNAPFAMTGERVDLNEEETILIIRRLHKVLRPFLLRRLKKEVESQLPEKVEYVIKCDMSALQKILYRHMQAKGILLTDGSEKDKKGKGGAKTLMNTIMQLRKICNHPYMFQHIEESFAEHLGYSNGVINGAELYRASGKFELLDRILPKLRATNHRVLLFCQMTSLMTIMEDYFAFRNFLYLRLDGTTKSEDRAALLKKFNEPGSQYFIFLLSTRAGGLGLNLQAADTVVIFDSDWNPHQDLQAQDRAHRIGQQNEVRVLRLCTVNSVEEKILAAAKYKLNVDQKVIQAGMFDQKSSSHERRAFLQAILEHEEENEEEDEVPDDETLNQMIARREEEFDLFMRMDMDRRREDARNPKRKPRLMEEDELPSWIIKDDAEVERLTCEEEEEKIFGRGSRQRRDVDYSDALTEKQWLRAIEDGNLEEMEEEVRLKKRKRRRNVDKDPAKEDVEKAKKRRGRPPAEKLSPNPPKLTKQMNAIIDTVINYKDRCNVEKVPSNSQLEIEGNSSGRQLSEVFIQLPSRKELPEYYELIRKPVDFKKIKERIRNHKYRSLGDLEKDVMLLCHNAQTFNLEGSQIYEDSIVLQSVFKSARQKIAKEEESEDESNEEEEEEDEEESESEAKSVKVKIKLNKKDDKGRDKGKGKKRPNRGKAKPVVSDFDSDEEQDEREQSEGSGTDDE

Consider `Cc1ncsc1-c1ccc([C@H](C)NC(=O)[C@@H]2C[C@@H](O)CN2C(=O)[C@H](c2cc(N3CCCC(CN4CCC(O[C@H]5C[C@H](Oc6cc(N7C8CCC7CN(c7cc(-c9ccccc9O)nnc7N)C8)ccn6)C5)CC4)C3)no2)C(C)C)cc1` (stereo partly drawn) [compound 655, (2S,4R)-1-((2S)-2-(3-(3-((4-((1r,3S)-3-((4-(3-(3-amino-6-(2-hydroxyphenyl)pyridazin-4-yl)-3,8-diazabicyclo[3.2.1]octan-8-yl)pyridin-2-yl)oxy)cyclobutoxy)piperidin-1-yl)methyl)piperidin-1-yl)isoxazol-5-yl)-3-methylbutanoyl)-4-hydroxy-N-((S)-1-(4-(4-methylthiazol-5-yl)phenyl)ethyl)pyrrolidine-2-carboxamide], for which, under setting [1], the DC50 was more than 30 nM. `Cc1nccn1-c1ccc([C@H](C)NC(=O)[C@@H]2C[C@@H](O)CN2C(=O)[C@H](c2cc(OC/C=C/c3ccc(O[C@H]4C[C@H](Oc5cc(N6C7CCC6CN(c6cc(-c8ccccc8O)nnc6N)C7)ccn5)C4)cn3)no2)C(C)C)cc1` [compound 276, (2S,4R)-1-((2S)-2-(3-(((E)-3-(5-((1r,3S)-3-((4-(3-(3-amino-6-(2-hydroxyphenyl)pyridazin-4-yl)-3,8-diazabicyclo[3.2.1]octan-8-yl)pyridin-2-yl)oxy)cyclobutoxy)pyridin-2-yl)allyl)oxy)isoxazol-5-yl)-3-methylbutanoyl)-4-hydroxy-N-((S)-1-(4-(2-methyl-1H-imidazol-1-yl)phenyl)ethyl)pyrrolidine-2-carboxamide]: under setting [1], the DC50 is more than 30 nM.

With `Cc1ncsc1-c1ccc([C@H](C)NC(=O)[C@@H]2C[C@@H](O)CN2C(=O)[C@@H](c2cc(OCCCCN3CCN(CCCCOc4cc(N5C6CCC5CN(c5cc(-c7ccccc7O)nnc5N)C6)ccn4)CC3)no2)C(C)C)cc1` [compound 390, (2S,4R)-1-((2R)-2-(3-(4-(4-(4-((4-(3-(3-amino-6-(2-hydroxyphenyl)pyridazin-4-yl)-3,8-diazabicyclo[3.2.1]octan-8-yl)pyridin-2-yl)oxy)butyl)piperazin-1-yl)butoxy)isoxazol-5-yl)-3-methylbutanoyl)-4-hydroxy-N-((S)-1-(4-(4-methylthiazol-5-yl)phenyl)ethyl)pyrrolidine-2-carboxamide], under setting [2], the Dmax is more than 75%. Also, the DC50 under setting [3] was less than 2.5 nM. Regarding `Cc1ncsc1-c1ccc([C@H](C)NC(=O)[C@@H]2C[C@@H](O)CN2C(=O)[C@@H](c2cc(OCCN3CCC(O[C@H]4C[C@H](Oc5cnnc(N6C7CCC6CN(c6cc(-c8ccccc8O)nnc6N)C7)c5)C4)CC3)no2)C(C)C)cc1` [compound 471, (2S,4R)-1-((2R)-2-(3-(2-(4-((1r,3R)-3-((6-(3-(3-amino-6-(2-hydroxyphenyl)pyridazin-4-yl)-3,8-diazabicyclo[3.2.1]octan-8-yl)pyridazin-4-yl)oxy)cyclobutoxy)piperidin-1-yl)ethoxy)isoxazol-5-yl)-3-methylbutanoyl)-4-hydroxy-N-((S)-1-(4-(4-methylthiazol-5-yl)phenyl)ethyl)pyrrolidine-2-carboxamide], the Dmax under setting [2] was more than 75%. In addition, the DC50 under setting [3] was less than 2.5 nM. Consider `Cc1ncsc1-c1ccc([C@H](C)NC(=O)[C@@H]2C[C@@H](O)CN2C(=O)[C@H](c2cc(OCCN3CCC(O[C@H]4C[C@H](Oc5cc(N6C7CCC6CN(c6cc(-c8ccccc8O)nnc6N)C7)ccn5)C4)CC3)no2)C(C)C)cn1` [compound 179, (2S,4R)-1-((2S)-2-(3-(2-(4-((1r,3S)-3-((4-(3-(3-amino-6-(2-hydroxyphenyl)pyridazin-4-yl)-3,8-diazabicyclo[3.2.1]octan-8-yl)pyridin-2-yl)oxy)cyclobutoxy)piperidin-1-yl)ethoxy)isoxazol-5-yl)-3-methylbutanoyl)-4-hydroxy-N-((S)-1-(6-(4-methylthiazol-5-yl)pyridin-3-yl)ethyl)pyrrolidine-2-carboxamide], for which, under setting [1], the 50% degradation concentration (DC50) is more than 30 nM. `Cc1ncsc1-c1ccc(CNC(=O)[C@@H]2C[C@@H](O)CN2C(=O)[C@@H](c2cc(OCC#Cc3ccc(O[C@H]4C[C@H](Oc5cc(N6C7CCC6CN(c6cc(-c8ccccc8O)nnc6N)C7)ccn5)C4)cn3)no2)C(C)C)cc1` [compound 221, (2S,4R)-1-((2R)-2-(3-((3-(5-((1r,3R)-3-((4-(3-(3-amino-6-(2-hydroxyphenyl)pyridazin-4-yl)-3,8-diazabicyclo[3.2.1]octan-8-yl)pyridin-2-yl)oxy)cyclobutoxy)pyridin-2-yl)prop-2-yn-1-yl)oxy)isoxazol-5-yl)-3-methylbutanoyl)-4-hydroxy-N-(4-(4-methylthiazol-5-yl)benzyl)pyrrolidine-2-carboxamide]: the DC50 under setting [1] is less than 2.5 nM. Further, the Dmax under setting [4] was more than 75%.

Consider `Cc1ncsc1-c1ccc(C(CCCP(=O)(O)O)NC(=O)[C@@H]2C[C@@H](O)CN2C(=O)[C@H](c2cc(OCCN3CCC(O[C@H]4C[C@H](Oc5cc(N6C7CCC6CN(c6cc(-c8ccccc8O)nnc6N)C7)ccn5)C4)CC3)no2)C(C)C)cc1` (stereo partly drawn) [compound 701, (4-((2S,4R)-1-((2S)-2-(3-(2-(4-((1r,3S)-3-((4-(3-(3-amino-6-(2-hydroxyphenyl)pyridazin-4-yl)-3,8-diazabicyclo[3.2.1]octan-8-yl)pyridin-2-yl)oxy)cyclobutoxy)piperidin-1-yl)ethoxy)isoxazol-5-yl)-3-methylbutanoyl)-4-hydroxypyrrolidine-2-carboxamido)-4-(4-(4-methylthiazol-5-yl)phenyl)butyl)phosphonic acid], for which the 50% degradation concentration (DC50) (BRM degradation, SW1573 cells) is more than 30 nM. For the molecule `Cc1ncsc1-c1ccc([C@H](C)NC(=O)[C@@H]2C[C@@H](O)CN2C(=O)[C@H](c2onc(OCCN3CCC(O[C@H]4C[C@H](Oc5cc(N6C7CCC6CN(c6cc(-c8ccccc8O)nnc6N)C7)ccn5)C4)CC3)c2F)C(C)C)cc1` [compound 208, (2S,4R)-1-((2S)-2-(3-(2-(4-((1r,3S)-3-((4-(3-(3-amino-6-(2-hydroxyphenyl)pyridazin-4-yl)-3,8-diazabicyclo[3.2.1]octan-8-yl)pyridin-2-yl)oxy)cyclobutoxy)piperidin-1-yl)ethoxy)-4-fluoroisoxazol-5-yl)-3-methylbutanoyl)-4-hydroxy-N-((S)-1-(4-(4-methylthiazol-5-yl)phenyl)ethyl)pyrrolidine-2-carboxamide], the DC50 under setting [1] is more than 30 nM. In addition, the Dmax under setting [4] was more than 75%.

For the molecule `Cc1ncsc1-c1ccc([C@H](C)NC(=O)[C@@H]2C[C@@H](O)CN2C(=O)[C@H](c2cc(OCCN3CCC(O[C@H]4C[C@H](Nc5cc(N6C7CCC6CN(c6cc(-c8ccccc8O)nnc6N)C7)ccn5)C4)CC3)no2)C(C)C)cc1` [compound 492, (2S,4R)-1-((2S)-2-(3-(2-(4-((1r,3S)-3-((4-(3-(3-amino-6-(2-hydroxyphenyl)pyridazin-4-yl)-3,8-diazabicyclo[3.2.1]octan-8-yl)pyridin-2-yl)amino)cyclobutoxy)piperidin-1-yl)ethoxy)isoxazol-5-yl)-3-methylbutanoyl)-4-hydroxy-N-((S)-1-(4-(4-methylthiazol-5-yl)phenyl)ethyl)pyrrolidine-2-carboxamide], under setting [5], the DC50 is more than 30 nM. Turning to `Cc1ncsc1-c1ccc([C@H](C)NC(=O)[C@@H]2C[C@@H](O)CN2C(=O)[C@@H](c2cc(N3CCC(F)(CN4CCC(O[C@H]5C[C@H](Oc6cc(N7C8CCC7CN(c7cc(-c9ccccc9O)nnc7N)C8)ccn6)C5)CC4)CC3)no2)C(C)C)cc1` [compound 683, (2S,4R)-1-((2R)-2-(3-(4-((4-((1r,3r)-3-((4-(3-(3-amino-6-(2-hydroxyphenyl)pyridazin-4-yl)-3,8-diazabicyclo[3.2.1]octan-8-yl)pyridin-2-yl)oxy)cyclobutoxy)piperidin-1-yl)methyl)-4-fluoropiperidin-1-yl)isoxazol-5-yl)-3-methylbutanoyl)-4-hydroxy-N-((S)-1-(4-(4-methylthiazol-5-yl)phenyl)ethyl)pyrrolidine-2-carboxamide], the DC50 under setting [1] was less than 2.5 nM. The greatest degradation seen (Dmax) (BRM degradation, SW1573 cells, read-out: Dmax (% degraded)) is more than 75%.

With `Cc1ncsc1-c1ccc([C@H](C)NC(=O)[C@@H]2C[C@@H](O)CN2C(=O)[C@@H](c2cc(N3CCC(CN4CCC(CCOc5cc(N6C7CCC6CN(c6cc(-c8ccccc8O)nnc6N)C7)ccn5)CC4)CC3)no2)C(C)C)cc1` [compound 604, (2S,4R)-1-((2R)-2-(3-(4-((4-(2-((4-(3-(3-amino-6-(2-hydroxyphenyl)pyridazin-4-yl)-3,8-diazabicyclo[3.2.1]octan-8-yl)pyridin-2-yl)oxy)ethyl)piperidin-1-yl)methyl)piperidin-1-yl)isoxazol-5-yl)-3-methylbutanoyl)-4-hydroxy-N-((S)-1-(4-(4-methylthiazol-5-yl)phenyl)ethyl)pyrrolidine-2-carboxamide], the Dmax under setting [6] was more than 75%. Moreover, the DC50 under setting [7] is less than 2.5 nM. With `Cc1cc([C@H](C(=O)N2C[C@H](O)C[C@H]2C(=O)N[C@@H](COCCCCCc2cc(-c3ccccc3O)nnc2N)c2ccc(-c3scnc3C)cc2)C(C)C)on1` [compound 530, (2S,4R)-N-((R)-2-((5-(3-amino-6-(2-hydroxyphenyl)pyridazin-4-yl)pentyl)oxy)-1-(4-(4-methylthiazol-5-yl)phenyl)ethyl)-4-hydroxy-1-((R)-3-methyl-2-(3-methylisoxazol-5-yl)butanoyl)pyrrolidine-2-carboxamide], the 50% degradation concentration (DC50) under setting [5] was more than 30 nM. Turning to `Cc1ncsc1-c1ccc([C@H](C)NC(=O)[C@@H]2C[C@@H](O)CN2C(=O)[C@H](c2cc(N3CCC(OC4CCN(CC5CC(CN6CCC([C@H](C)n7cc(-c8cc(-c9ccccc9O)nnc8N)cn7)CC6)C5)CC4)CC3)no2)C(C)C)cc1` (single isomer, unassigned) [compound 593], the Dmax under setting [6] was more than 75%. Further, the DC50 under setting [7] was less than 2.5 nM.
